{"source": "patent US20230076977A1", "about": "“UTROPHIN UPREGULATION COMPOUNDS FOR DUCHENNE MUSCULAR DYSTROPHY THERAPY” (THE TRUSTEES OF THE UNIVERSITY OF PENNSYLVANIA, priority 2020, published 2023)", "key": {"[1]": {"tested_on": "utrophin protein in C2C12 cells", "assay": "Utrophin western blot in C2C12 cells (endogenous protein expression)", "type": "cell-based", "settings": "24 hours", "method": "The 10 highest scoring hits were selected from this subset for performing in vitro validation. C2C12 cells were treated with 1 μM concentrations of the selected hits for 24 hours, followed by western blot evaluation of utrophin levels as an orthogonal assay for endogenous protein expression. […] Panobinostat, an FDA-approved non-selective HDAC inhibitor for cancer treatment, increased utrophin levels by 1.9-fold. […] AR-42 (S2244), another HDAC inhibitor with proven preclinical efficacy in contrasting cancer-induced cachexia, increased utrophin by 2.3-fold and had the second highest H2LPS. Consistent with the calculated HPS, the highest scoring hit, TSA (S1045), had also the highest magnitude of protein upregulation (3.9-fold) followed by PCI-24781 (S1090; 3.7-fold). Importantly, high H2LPS was generally correlated with confirmation in WB assays (FIG. 2E).\n(§1) Total RNA was extracted from TA muscle samples with RNAeasy kit (Qiagen, USA) and reverse transcribed with random hexamers. qPCR was performed using Taqman probes for Utrophin (Assay ID Mm01168846_ml) and β-actin. Muscle tissue samples were lysed with TNEC buffer (50 mM Tris-HCl, pH 8.0; 150 mMNaCl; 1% NP40; 2 mM EDTA) buffer containing complete protease inhibitor cocktail (Roche, Basel, Switzerland). C2C12 cells were treated for 24 h with 1 μM concentrations of compounds from a fresh batch (3 wells for each compound), and cell samples were lysed with RIPA buffer with protease inhibitor cocktail. The experiment was repeated three independent times. 50-75 μg of total proteins from muscle tissues, or 4 μg of cell protein extracts, were resolved on a 3-8% Tris-Acetate gradient gel (NuPage; Invitrogen), transferred to PDVF or nitrocellulose membranes and mouse monoclonal anti-utrophin antibody MANCHO3 clone 8A4 (developed by Glenn E. Morris and obtained from the Developmental Studies Hybridoma Bank, Iowa) or a custom-made anti-UtrophinA rabbit polyclonal antibody (muscle tissue samples) generated and described previously by Chakkalakal et al., Nucleic Acids Res. 36, 826-838 (2008), which is incorporated herein by reference in its entirety.\n(§2) TSA is a broad-spectrum HDAC inhibitor. […] To further validate in vitro the dose-dependent capacity of TSA to upregulate utrophin protein, C2C12 cells were treated for 24 hours with increasing concentrations of TSA (from 1 nM to 10 μM) (FIG. 3B). Consistent with the single-dose western blot validation experiments, utrophin protein levels were increased 4.3 times by 1 μM TSA. […] Some cytotoxicity was evident for TSA concentrations higher than 1 μM."}, "[2]": {"tested_on": "5′- and 3′-UTRs of human utrophin", "assay": "Screening assay: C2C12 stable reporter line, CMV-driven luciferase flanked by utrophin 5′ and 3′ UTRs", "type": "cell-based", "settings": "for EC50: C2C12", "method": "(§3) The construct for the HTS assay was generated by cloning the 5′- and 3′-UTRs of human utrophin into pGL4:50-hygro (Promega, Madison, Wis.) at the 5′ and 3′ of the luciferase coding sequence and has been described previously by Moorwood. […] For the counterscreening assay, the pGL4:50-hygro plasmid was used alone. Low passage C2C12 cells obtained from ATCC were transfected with either constructs, stably selected with 500 μg/mL hygromycin and subcloned using two rounds of serial dilutions to isolate single cell-derived colonies in a 96 wells plate format. […] The selected clones were cultured in presence of 100 μg/mL hygromycin B and were transferred to the HTS Facility at the University of Pennsylvania for implementation into a 384-wells format suitable for HTS.\n(§4) The construct for generating the screening C2C12 cell line carrying the 5′ and 3′UTR of the human utrophin gene is described by Moorwood. […] Some compounds could increase light emission independently from the 5′ and 3′UTR regions, i.e., by activating the CMV promoter or increasing overall mRNA synthesis. Therefore, in order to distinguish such compounds, a counterscreening cell line stably expressing only the CMV-driven luciferase gene was generated (FIG. 1A). To determine optimal conditions for the implementation in a 384-wells high-throughput format, evaluated were DMSO tolerance, optimal cell density and incubation time (FIG. 5A-5C).\n(§5) A first criterion for evaluating the performance of the selected hits was whether their activity was dose-dependent. After performing a dose-response analysis (5 nM to 10 μM) of each hit in the screening cell line, a clustering approach was applied (complete linkage with Euclidean distance measurement) to highlight similarities between compounds profiles. […] By modeling each dose-response trace with a 4-parameter logistic model applied to the Z— score values (FIG. 2B), the EC50 of each molecule was calculated.\n(§6) Cells were allowed to attach overnight at 37° C., 5% CO2 in a humidified chamber. […] Compounds were added to a final concentration of 1 μM and 100 nM in 0.2% DMSO. Columns 1 and 23 were treated with 0.2% DMSO (negative control). Columns 2 and 24 were treated with 100 nM Panobinostat (positive control). Cells were incubated for 24 hours at 37° C., 5% CO2. […] Luminescence was measured on an EnVisionXcite Multilabel Plate Reader (PerkinElmer), using ultrasensitive luminescence measurement technology."}, "C2C12 cells": {"tested_on": "C2C12 cells", "assay": "Cytotoxicity in C2C12 cells treated with increasing TSA concentrations", "type": "cell-based", "settings": "24 hours", "method": "as §2"}, "[3]": {"tested_on": "CMV-driven luciferase gene", "assay": "Counterscreening assay: C2C12 line stably expressing only the CMV-driven luciferase gene", "type": "cell-based", "settings": "Mus musculus, C2C12, read-out: counterscreening EC50", "method": "as §3, §4, §5, §6"}, "[4]": {"tested_on": "HDAC activity and proliferation of cancer cells", "settings": "depending on the particular cell line; cited from earlier work"}, "mdx mouse model of DMD": {"tested_on": "mdx mouse model of DMD", "assay": "Preclinical TSA treatment in the mdx mouse model of DMD", "type": "in vivo", "method": "Four-week-old mdx mice (C57BL/10ScSn-DMDmdx/J) were injected intraperitoneally on alternate days with Trichostatin A (Wako Chemicals USA-Inc, Richmond, Va.; dose 30 μg/kg), or an equal volume of sterile PBS for three months. All animal experiments were approved by the Institutional Animal Care and Use Committee at the University of Pennsylvania School of Medicine.\nFunctional in vivo and ex vivo analyses including rotarod, EDL strength, and sensitivity to damage induced by lengthening contractions (ECC), were performed as described by Krag, et al. Proc. Natl. Acad. Sci. U.S.A. 101, 13856-13860 (2004) and Bogdanovich, S. et al. Functional improvement of dystrophic muscle by myostatin blockade. Nature 420, 418-421 (2002), each of which is incorporated herein by reference in its entirety. Following the procedure, muscles were flash-frozen in liquid nitrogen-cooled isopentane and stored at −80° C.\nas §1\nTo test the ability of TSA to increase utrophin in vivo and improve the dystrophic phenotype, 4 week-old mdx mice were treated with i.p. injections of 30 μg/kg body weight TSA, on alternating days for a total of 3 months."}, "[5]": {"settings": "ex vivo EDL, treated mdx, normalized by cross sectional area"}, "[6]": {"settings": "treated mdx, TSA 30 μg/kg i.p. alternate days, 3 months"}}, "note": "Where two headings read alike, the source gives them in different places.", "data": [{"smiles": "CC(/C=C/C(=O)NO)=C\\[C@@H](C)C(=O)c1ccc(N(C)C)cc1", "note": "[Trichostatin A]", "values": [{"measurement": "Utrophin protein levels, fold increase", "setting": "[1]; 1 μM, normalized to tubulin, vs 0.1% DMSO control", "result": 3.9, "unit": "fold"}, {"measurement": "EC50", "setting": "[1]; Mus musculus, C2C12, 1 nM to 10 μM, read-out: EC50 for utrophin protein levels", "result": 88, "unit": "nM"}, {"measurement": "utrophin protein levels increased", "setting": "[1]; dose-response western blot, 1 μM TSA", "result": 4.3, "unit": "times"}, {"measurement": "EC50", "setting": "[2]; 4-parameter logistic fit of Z-scores, 24 h, no unit in table (0.013 = 13 nM), read-out: EC50 screen", "result": 13, "unit": "nM"}, {"measurement": "EC50", "setting": "[2]; read-out: EC50 score (1 to 4)", "result": "< 50", "unit": "nM"}, {"measurement": "EC50", "setting": "[2]; read-out: screening EC50", "result": 13, "unit": "nM"}, {"measurement": "Upper-lower limits scoren", "setting": "[2]; difference between upper and lower boundaries of the fitted dose-response screening curve", "result": 34.53}, {"measurement": "Fold diff", "setting": "[2]; fold difference between the EC50s of screening and counterscreening", "result": 119.82}, {"measurement": "concentrations at which some cytotoxicity was evident", "setting": "C2C12 cells", "result": "higher than 1 μM"}, {"measurement": "EC50", "setting": "[3]", "result": 1300, "unit": "nM"}, {"measurement": "IC50 in vitro", "setting": "[4]", "result": "nM to μM range"}, {"measurement": "ECC force drop 1-5", "setting": "mdx mouse model of DMD; EDL, 5 consecutive eccentric contractions, treated mdx", "result": "25.81 ± 4.46", "unit": "%"}, {"measurement": "less force lost than control-treated muscles after the 5th ECC", "setting": "mdx mouse model of DMD; EDL, series of 5 ECCs, FIG. 4G", "result": 37, "unit": "%"}, {"measurement": "Utrophin mRNA levels increased", "setting": "mdx mouse model of DMD; TA muscle, qPCR, after TSA treatment", "result": 4.9, "unit": "fold"}, {"measurement": "utrophin protein levels increased", "setting": "mdx mouse model of DMD; TA muscle, western blot, after TSA treatment", "result": 2, "unit": "fold"}, {"measurement": "myostatin or follistatin gene expression", "setting": "mdx mouse model of DMD; TA muscles, FIG. 7", "result": "did not cause changes"}, {"measurement": "lower number of centrally nucleated fibers", "setting": "mdx mouse model of DMD; TSA-treated EDL muscles vs control", "result": 30, "unit": "%"}, {"measurement": "isometric twitch and tetanic strength of EDL muscles", "setting": "mdx mouse model of DMD; before and after normalization by crossectional area", "result": "significantly higher"}, {"measurement": "effect on body weight or the wet weight of skeletal muscles and organs", "setting": "mdx mouse model of DMD; compared to control-treated mice", "result": "did not affect"}, {"measurement": "EDL Tetanic force", "setting": "mdx mouse model of DMD; ex vivo EDL, treated mdx", "result": "351.9 ± 16.61", "unit": "mN"}, {"measurement": "EDL Twitch force", "setting": "mdx mouse model of DMD; ex vivo EDL, treated mdx", "result": "64.19 ± 4.22", "unit": "mN"}, {"measurement": "EDL Tetanic force (specific)", "setting": "mdx mouse model of DMD; [5]", "result": "166.0 ± 9.09", "unit": "mN/mm^2"}, {"measurement": "EDL Twitch force (specific)", "setting": "mdx mouse model of DMD; [5]", "result": "29.98 ± 1.84", "unit": "mN/mm^2"}, {"measurement": "serum creatine kinase or hydroxyproline content in TA and diaphragm muscles", "setting": "mdx mouse model of DMD; mouse, in vivo", "result": "No significant changes"}, {"measurement": "Diaphragm Hydroxyproline Diaphragm", "setting": "mdx mouse model of DMD; treated mdx", "result": "3.33 ± 0.22", "unit": "µg/mg"}, {"measurement": "Diaphragm Hydroxyproline TA", "setting": "mdx mouse model of DMD; treated mdx", "result": "0.90 ± 0.06", "unit": "µg/mg"}, {"measurement": "EDL CNF (centrally nucleated fibers)", "setting": "mdx mouse model of DMD; treated mdx", "result": "24.62 ± 2.30", "unit": "%"}, {"measurement": "EDL CSA (cross sectional area)", "setting": "mdx mouse model of DMD; treated mdx", "result": "2.20 ± 0.13", "unit": "mm^2"}, {"measurement": "EDL L0 (muscle length)", "setting": "mdx mouse model of DMD; treated mdx", "result": "12.16 ± 0.20", "unit": "mm"}, {"measurement": "Serum CK", "setting": "mdx mouse model of DMD; treated mdx", "result": "7450 ± 2381", "unit": "U/L"}, {"measurement": "EDL muscle weight", "setting": "mdx mouse model of DMD; [6]", "result": "17.5 ± 0.4", "unit": "mg"}, {"measurement": "Gastrocnemius muscle weight", "setting": "mdx mouse model of DMD; [6]", "result": "213.0 ± 11.0", "unit": "mg"}, {"measurement": "Heart weight", "setting": "mdx mouse model of DMD; [6]", "result": "159.7 ± 5.2", "unit": "mg"}, {"measurement": "Kidneys weight", "setting": "mdx mouse model of DMD; [6]", "result": "532.3 ± 25.8", "unit": "mg"}, {"measurement": "Liver weight", "setting": "mdx mouse model of DMD; [6]", "result": "1179.0 ± 36.4", "unit": "mg"}, {"measurement": "Quadriceps muscle weight", "setting": "mdx mouse model of DMD; [6]", "result": "234.6 ± 8.7", "unit": "mg"}, {"measurement": "Soleus muscle weight", "setting": "mdx mouse model of DMD; [6]", "result": "12.8 ± 0.4", "unit": "mg"}, {"measurement": "Tibialis Anterior (TA) muscle weight", "setting": "mdx mouse model of DMD; [6]", "result": "66.1 ± 1.5", "unit": "mg"}, {"measurement": "Body weight", "setting": "mdx mouse model of DMD; treated mdx, TSA 30 μg/kg i.p. alternate days, 3 months, mean ± SEM", "result": "30.2 ± 0.5", "unit": "g"}, {"measurement": "rotarod test performance", "setting": "mdx mouse model of DMD; treated vs control mdx", "result": "performed significantly better than control mdx"}]}]}
